Paper PMC5681660, “Reduced hepatitis B and D viral entry using clinically applied drugs as novel inhibitors of the bile acid transporter NTCP” (Scientific Reports, 2017)
Counter-ions that a name gives are not always drawn.

Legend:
human NTCP [1] = molecular target: T1, human NTCP (Homo sapiens, UniProt Q14973); assay: Screening taurocholate uptake assay (96-well, [14C]taurocholate, 10 µM drug); settings: for B-score functional assay: 10 µM drug
T1 sequence (Q14973 1-349): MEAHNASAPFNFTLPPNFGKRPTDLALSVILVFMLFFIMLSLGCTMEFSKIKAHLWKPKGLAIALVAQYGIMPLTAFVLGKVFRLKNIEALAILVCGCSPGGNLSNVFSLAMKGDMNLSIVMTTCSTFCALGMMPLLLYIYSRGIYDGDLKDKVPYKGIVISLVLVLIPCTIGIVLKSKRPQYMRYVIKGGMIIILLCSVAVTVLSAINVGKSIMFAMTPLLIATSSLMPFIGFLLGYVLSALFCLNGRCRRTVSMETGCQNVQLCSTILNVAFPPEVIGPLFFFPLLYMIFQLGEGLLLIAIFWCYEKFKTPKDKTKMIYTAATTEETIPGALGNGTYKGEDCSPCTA

human NTCP [2] = molecular target: T1, human NTCP; assay: Screening fluorescent competitive Myrcludex B-FITC binding assay (96-well, 10 µM drug); settings: 10 µM drug
[3] = Prestwick library screen, B-score of taurocholate uptake
[4] = combined ranking from functional and binding assay B-scores
[5] = Prestwick library screen, B-score of Myrcludex B-FITC binding
[6] = combined ranking from functional and binding screening assays
[7] = screen, Myrcludex B-FITC binding
[8] = Prestwick library screen, taurocholate uptake
[9] = ranking score beside the functional and binding assay B-scores of the screen
[10] = Prestwick library screen, Myrcludex B-FITC binding

Structure (SMILES)	B-score functional assay (human NTCP [1]; [3])	Ranking score (human NTCP [1]; [4])	B-score binding assay (human NTCP [2]; [5])	also measured
Cl.NCC(O)c1ccc(O)cc1 (racemic) [(+,-)-Octopamine hydrochloride]	2.044	930.549	0.069	–
Cl.O=C(OCC(O)CO)c1ccccc1Nc1ccnc2cc(Cl)ccc12 (stereo not drawn) [Glafenine hydrochloride]	0.341	1037.91	3.077	–
CC(C)(C)NCC(O)c1cc(O)cc(O)c1.CC(C)(C)NCC(O)c1cc(O)cc(O)c1.O=S(=O)(O)O (stereo not drawn) [Terbutaline hemisulfate]	–	–	–	Ranking score (human NTCP [1]; [6]): 291.443; B-score functional assay (human NTCP [1]; screen, taurocholate uptake): 2.669; B-score binding assay (human NTCP [2]; [7]): -2.462
CCOc1ccc(Cc2nccc3cc(OCC)c(OCC)cc23)cc1OCC [Ethaverine hydrochloride]	0.024	885.91	1.651	–
O=C1[C@H]2CCCC[C@H]2C(=O)N1CCCCN1CCN(c2nsc3ccccc23)CC1 [Perospirone]	0.093	917.333	1.438	–
NNC(=O)c1ccncc1 [Isoniazid]	1.386	1117.92	1.337	–
CCCOc1ccc(C(=O)OCCN(CC)CC)cc1N [Proparacaine hydrochloride]	0.236	984.211	1.832	–
Nc1nc(N)c2nc(-c3ccccc3)c(N)nc2n1 [Triamterene]	–	–	–	B-score functional assay (human NTCP [1]; [8]): 0.708; Ranking score (human NTCP [1]; [9]): 725.193; B-score binding assay (human NTCP [2]; [10]): -0.121
C#CCN(C)Cc1ccccc1 [Pargyline hydrochloride]	–	–	–	B-score functional assay (human NTCP [1]; [8]): -0.107; Ranking score (human NTCP [1]; [9]): 685.259; B-score binding assay (human NTCP [2]; [10]): 0.419
CCN(CC)CCNC(=O)c1cc(Br)c(N)cc1OC [Bromopride]	0.033	880.053	1.459	–
CCOc1ccc2c(c1)C(C)=CC(C)(C)N2 [Ethoxyquin]	–	–	–	Ranking score (human NTCP [1]; [6]): 406.463; B-score functional assay (human NTCP [1]; screen, taurocholate uptake): 0.194; B-score binding assay (human NTCP [2]; [7]): -1.217
Cc1scc2c1N(C(=O)CN1CCN(C)CC1)c1ccccc1NC2=O [Telenzepine dihydrochloride]	0.592	1037.8	1.535	–
Cc1onc(-c2ccccc2)c1-c1ccc(S(N)(=O)=O)cc1 [Valdecoxib]	–	–	–	B-score functional assay (human NTCP [1]; [8]): -0.028; Ranking score (human NTCP [1]; [9]): 650.385; B-score binding assay (human NTCP [2]; [10]): 0.051
CO[C@@H]1[C@@H](O[C@@H]2O[C@H](C)[C@@H](O[C@H]3C[C@@](C)(O)[C@@H](OC(=O)CC(C)C)[C@H](C)O3)[C@H](N(C)C)[C@H]2O)[C@@H](CC=O)C[C@@H](C)[C@@H](O)/C=C/C=C/C[C@@H](C)OC(=O)C[C@H]1OC(C)=O [Josamycin]	–	–	–	B-score functional assay (human NTCP [1]; [8]): 0.552; Ranking score (human NTCP [1]; [9]): 744.048; B-score binding assay (human NTCP [2]; [10]): -0.039
COc1ccc(-c2cc(=S)ss2)cc1 [Anethole-trithione]	–	–	–	B-score functional assay (human NTCP [1]; [8]): 0.437; Ranking score (human NTCP [1]; [9]): 719.937; B-score binding assay (human NTCP [2]; [10]): -0.048
CC(CN(C)C)CN1c2ccccc2Sc2ccccc21.CC(CN(C)C)CN1c2ccccc2Sc2ccccc21.O=C(O)C(O)C(O)C(=O)O (stereo not drawn) [Trimeprazine tartrate]	–	–	–	Ranking score (human NTCP [1]; [6]): 352.65; B-score functional assay (human NTCP [1]; screen, taurocholate uptake): -0.375; B-score binding assay (human NTCP [2]; [7]): -0.763
CO/N=C(\C(=O)N[C@@H]1C(=O)N2C(C(=O)O)=C(COC(C)=O)CS[C@H]12)c1csc(N)n1 [Cefotaxime sodium salt]	–	–	–	Ranking score (human NTCP [1]; [6]): 382.157; B-score functional assay (human NTCP [1]; screen, taurocholate uptake): 3.35; B-score binding assay (human NTCP [2]; [7]): -1.895
CC(C[N+](C)(C)C)OC(N)=O (stereo not drawn) [Bethanechol chloride]	1.898	1067.05	0.661	–
O=C1NCCN1CCN1CCC(c2cn(-c3ccc(F)cc3)c3ccc(Cl)cc23)CC1 [Sertindole]	0.957	1028.08	0.84	–
CC(=O)c1ccc(S(=O)(=O)NC(=O)NC2CCCCC2)cc1 [Acetohexamide]	0.057	875.07	1.192	–
C=C1C[C@H]2[C@@H]3C=C(C)C4=CC(=O)CC[C@]4(C)[C@H]3CC[C@]2(C)[C@@]1(OC(C)=O)C(C)=O [Melengestrol acetate]	–	–	–	Ranking score (human NTCP [1]; [6]): 323.966; B-score functional assay (human NTCP [1]; screen, taurocholate uptake): -2.447; B-score binding assay (human NTCP [2]; [7]): 1.224
O=C(CCCN1CCC(n2c(O)nc3ccccc32)CC1)c1ccc(F)cc1 [Benperidol]	–	–	–	Ranking score (human NTCP [1]; [6]): 422.659; B-score functional assay (human NTCP [1]; screen, taurocholate uptake): 0.351; B-score binding assay (human NTCP [2]; [7]): -1.201
